Measurements reported in ChEMBL document CHEMBL3751674, “Synthesis, antimicrobial activity of Schiff base compounds of cinnamaldehyde and amino acids” (2016).

How the values were obtained:
Type in all cases: functional
Settings in all cases: read-out: DIZ
Penicillium citrinum [1] = assay: Antifungal activity against Penicillium citrinum at 0.25 mol/L after 2 to 4 days by paper disc method
Staphylococcus aureus [2] = assay: Antibacterial activity against Staphylococcus aureus at 0.13 mol/L after 12 to 24 hrs by paper disc method
Penicillium citrinum [3] = assay: Antifungal activity against Penicillium citrinum at 0.06 mol/L after 2 to 4 days by paper disc method
Escherichia coli [4] = assay: Antibacterial activity against Escherichia coli at 0.13 mol/L after 12 to 24 hrs by paper disc method
Escherichia coli [5] = assay: Antibacterial activity against Escherichia coli at 0.25 mol/L after 12 to 24 hrs by paper disc method
Escherichia coli [6] = assay: Antibacterial activity against Escherichia coli at 0.06 mol/L after 12 to 24 hrs by paper disc method
Staphylococcus aureus [7] = assay: Antibacterial activity against Staphylococcus aureus at 0.03 mol/L after 12 to 24 hrs by paper disc method
Staphylococcus aureus [8] = assay: Antibacterial activity against Staphylococcus aureus at 0.25 mol/L after 12 to 24 hrs by paper disc method
Aspergillus niger [9] = assay: Antifungal activity against Aspergillus niger at 0.03 mol/L after 2 to 4 days by paper disc method
Escherichia coli [10] = assay: Antibacterial activity against Escherichia coli at 0.03 mol/L after 12 to 24 hrs by paper disc method
Penicillium citrinum [11] = assay: Antifungal activity against Penicillium citrinum at 0.03 mol/L after 2 to 4 days by paper disc method
Staphylococcus aureus [12] = assay: Antibacterial activity against Staphylococcus aureus at 0.06 mol/L after 12 to 24 hrs by paper disc method
Aspergillus niger [13] = assay: Antifungal activity against Aspergillus niger at 0.13 mol/L after 2 to 4 days by paper disc method
Aspergillus niger [14] = assay: Antifungal activity against Aspergillus niger at 0.06 mol/L after 2 to 4 days by paper disc method
Penicillium citrinum [15] = assay: Antifungal activity against Penicillium citrinum at 0.13 mol/L after 2 to 4 days by paper disc method
Aspergillus niger [16] = assay: Antifungal activity against Aspergillus niger at 0.25 mol/L after 2 to 4 days by paper disc method

## COc1ccc(/C=C/C=N/[C@@H](CC(=O)O)C(=O)O)cc1
Penicillium citrinum [1]
  zone of inhibition at 250000 µM: 34.3 mm
Staphylococcus aureus [2]
  zone of inhibition at 130000 µM: 10.2 mm
Penicillium citrinum [3]
  zone of inhibition at 60000 µM: 12.8 mm
Escherichia coli [4]
  zone of inhibition at 130000 µM: 10 mm
Escherichia coli [5]
  zone of inhibition at 250000 µM: 9.5 mm
Escherichia coli [6]
  zone of inhibition at 60000 µM: 10 mm
Staphylococcus aureus [7]
  zone of inhibition at 30000 µM: 8 mm
Staphylococcus aureus [8]
  zone of inhibition at 250000 µM: 8 mm
Aspergillus niger [9]
  zone of inhibition at 30000 µM: 8 mm
Escherichia coli [10]
  zone of inhibition at 30000 µM: 10.3 mm
Penicillium citrinum [11]
  zone of inhibition at 30000 µM: 8 mm
Staphylococcus aureus [12]
  zone of inhibition at 60000 µM: 8.3 mm
Aspergillus niger [13]
  zone of inhibition at 130000 µM: 22.5 mm
Aspergillus niger [14]
  zone of inhibition at 60000 µM: 11.2 mm
Penicillium citrinum [15]
  zone of inhibition at 130000 µM: 23.7 mm
Aspergillus niger [16]
  zone of inhibition at 250000 µM: 16.3 mm

## O=C(O)C[C@H](/N=C/C=C/c1ccccc1)C(=O)O
Penicillium citrinum [1]
  zone of inhibition at 250000 µM: 40.7 mm
Staphylococcus aureus [2]
  zone of inhibition at 130000 µM: 8 mm
Penicillium citrinum [3]
  zone of inhibition at 60000 µM: 14.8 mm
Escherichia coli [4]
  zone of inhibition at 130000 µM: 17.3 mm
Escherichia coli [5]
  zone of inhibition at 250000 µM: 25 mm
Escherichia coli [6]
  zone of inhibition at 60000 µM: 12 mm
Staphylococcus aureus [7]
  zone of inhibition at 30000 µM: 8 mm
Staphylococcus aureus [8]
  zone of inhibition at 250000 µM: 18 mm
Aspergillus niger [9]
  zone of inhibition at 30000 µM: 12.7 mm
Escherichia coli [10]
  zone of inhibition at 30000 µM: 8 mm
Penicillium citrinum [11]
  zone of inhibition at 30000 µM: 10.3 mm
Staphylococcus aureus [12]
  zone of inhibition at 60000 µM: 8 mm
Aspergillus niger [13]
  zone of inhibition at 130000 µM: 24 mm
Aspergillus niger [14]
  zone of inhibition at 60000 µM: 19.3 mm
Penicillium citrinum [15]
  zone of inhibition at 130000 µM: 28 mm
Aspergillus niger [16]
  zone of inhibition at 250000 µM: 29.7 mm

## CC(C)C[C@H](/N=C/C=C/c1ccccc1)C(=O)O
Penicillium citrinum [1]
  zone of inhibition at 250000 µM: 10.5 mm
Staphylococcus aureus [2]
  zone of inhibition at 130000 µM: 8 mm
Penicillium citrinum [3]
  zone of inhibition at 60000 µM: 9.3 mm
Escherichia coli [4]
  zone of inhibition at 130000 µM: 8.3 mm
Escherichia coli [5]
  zone of inhibition at 250000 µM: 10 mm
Escherichia coli [6]
  zone of inhibition at 60000 µM: 8 mm
Staphylococcus aureus [7]
  zone of inhibition at 30000 µM: 8 mm
Staphylococcus aureus [8]
  zone of inhibition at 250000 µM: 8 mm
Aspergillus niger [9]
  zone of inhibition at 30000 µM: 8 mm
Escherichia coli [10]
  zone of inhibition at 30000 µM: 8 mm
Penicillium citrinum [11]
  zone of inhibition at 30000 µM: 8.5 mm
Staphylococcus aureus [12]
  zone of inhibition at 60000 µM: 8.2 mm
Aspergillus niger [13]
  zone of inhibition at 130000 µM: 9.8 mm
Aspergillus niger [14]
  zone of inhibition at 60000 µM: 8 mm
Penicillium citrinum [15]
  zone of inhibition at 130000 µM: 9 mm
Aspergillus niger [16]
  zone of inhibition at 250000 µM: 16.3 mm

## CC(/N=C/C=C/c1ccc(Cl)cc1)C(=O)O (configuration not stated)
Penicillium citrinum [1]
  zone of inhibition at 250000 µM: 30.3 mm
Staphylococcus aureus [2]
  zone of inhibition at 130000 µM: 33.5 mm
Penicillium citrinum [3]
  zone of inhibition at 60000 µM: 24.7 mm
Escherichia coli [4]
  zone of inhibition at 130000 µM: 12.5 mm
Escherichia coli [5]
  zone of inhibition at 250000 µM: 12.2 mm
Escherichia coli [6]
  zone of inhibition at 60000 µM: 11.5 mm
Staphylococcus aureus [7]
  zone of inhibition at 30000 µM: 8.7 mm
Staphylococcus aureus [8]
  zone of inhibition at 250000 µM: 33.7 mm
Aspergillus niger [9]
  zone of inhibition at 30000 µM: 13.8 mm
Escherichia coli [10]
  zone of inhibition at 30000 µM: 12 mm
Penicillium citrinum [11]
  zone of inhibition at 30000 µM: 17.3 mm
Staphylococcus aureus [12]
  zone of inhibition at 60000 µM: 10.5 mm
Aspergillus niger [13]
  zone of inhibition at 130000 µM: 24.7 mm
Aspergillus niger [14]
  zone of inhibition at 60000 µM: 19.3 mm
Penicillium citrinum [15]
  zone of inhibition at 130000 µM: 26.3 mm
Aspergillus niger [16]
  zone of inhibition at 250000 µM: 26.7 mm

## O=C(O)CC[C@H](/N=C/C=C/c1ccccc1)C(=O)O
Penicillium citrinum [1]
  zone of inhibition at 250000 µM: 38 mm
Staphylococcus aureus [2]
  zone of inhibition at 130000 µM: 8.2 mm
Penicillium citrinum [3]
  zone of inhibition at 60000 µM: 14 mm
Escherichia coli [4]
  zone of inhibition at 130000 µM: 15 mm
Escherichia coli [5]
  zone of inhibition at 250000 µM: 26 mm
Escherichia coli [6]
  zone of inhibition at 60000 µM: 8 mm
Staphylococcus aureus [7]
  zone of inhibition at 30000 µM: 8 mm
Staphylococcus aureus [8]
  zone of inhibition at 250000 µM: 19.7 mm
Aspergillus niger [9]
  zone of inhibition at 30000 µM: 8 mm
Escherichia coli [10]
  zone of inhibition at 30000 µM: 8 mm
Penicillium citrinum [11]
  zone of inhibition at 30000 µM: 9.7 mm
Staphylococcus aureus [12]
  zone of inhibition at 60000 µM: 8 mm
Aspergillus niger [13]
  zone of inhibition at 130000 µM: 22.7 mm
Aspergillus niger [14]
  zone of inhibition at 60000 µM: 13.8 mm
Penicillium citrinum [15]
  zone of inhibition at 130000 µM: 25.3 mm
Aspergillus niger [16]
  zone of inhibition at 250000 µM: 25 mm

## O=C(O)C/N=C/C=C/c1ccc(Cl)cc1
Penicillium citrinum [1]
  zone of inhibition at 250000 µM: 25 mm
Staphylococcus aureus [2]
  zone of inhibition at 130000 µM: 9.7 mm
Penicillium citrinum [3]
  zone of inhibition at 60000 µM: 20.3 mm
Escherichia coli [4]
  zone of inhibition at 130000 µM: 18.2 mm
Escherichia coli [5]
  zone of inhibition at 250000 µM: 22.8 mm
Escherichia coli [6]
  zone of inhibition at 60000 µM: 21.7 mm
Staphylococcus aureus [7]
  zone of inhibition at 30000 µM: 12.3 mm
Staphylococcus aureus [8]
  zone of inhibition at 250000 µM: 22.2 mm
Aspergillus niger [9]
  zone of inhibition at 30000 µM: 12 mm
Escherichia coli [10]
  zone of inhibition at 30000 µM: 19.3 mm
Penicillium citrinum [11]
  zone of inhibition at 30000 µM: 16.3 mm
Staphylococcus aureus [12]
  zone of inhibition at 60000 µM: 8 mm
Aspergillus niger [13]
  zone of inhibition at 130000 µM: 23 mm
Aspergillus niger [14]
  zone of inhibition at 60000 µM: 21.7 mm
Penicillium citrinum [15]
  zone of inhibition at 130000 µM: 21.7 mm
Aspergillus niger [16]
  zone of inhibition at 250000 µM: 23.7 mm

## COc1ccc(/C=C/C=N/[C@@H](CCC(=O)O)C(=O)O)cc1
Penicillium citrinum [1]
  zone of inhibition at 250000 µM: 20.7 mm
Staphylococcus aureus [2]
  zone of inhibition at 130000 µM: 8 mm
Penicillium citrinum [3]
  zone of inhibition at 60000 µM: 13.3 mm
Escherichia coli [4]
  zone of inhibition at 130000 µM: 11.7 mm
Escherichia coli [5]
  zone of inhibition at 250000 µM: 18.7 mm
Escherichia coli [6]
  zone of inhibition at 60000 µM: 11.3 mm
Staphylococcus aureus [7]
  zone of inhibition at 30000 µM: 8 mm
Staphylococcus aureus [8]
  zone of inhibition at 250000 µM: 8.3 mm
Aspergillus niger [9]
  zone of inhibition at 30000 µM: 8.8 mm
Escherichia coli [10]
  zone of inhibition at 30000 µM: 8 mm
Penicillium citrinum [11]
  zone of inhibition at 30000 µM: 11.5 mm
Staphylococcus aureus [12]
  zone of inhibition at 60000 µM: 8.3 mm
Aspergillus niger [13]
  zone of inhibition at 130000 µM: 20.3 mm
Aspergillus niger [14]
  zone of inhibition at 60000 µM: 13.2 mm
Penicillium citrinum [15]
  zone of inhibition at 130000 µM: 25.3 mm
Aspergillus niger [16]
  zone of inhibition at 250000 µM: 23.2 mm
